Values joined by “and” are separate entries in the source; they are usually repeats but may differ in a detail not shown here. Equal entries are not always repeated.

The record followed here is ChEMBL document CHEMBL5442741, “ASAP - In vitro kinase profile” (2024).

The target in experiment [1] is Ephrin type-A receptor 5 (Homo sapiens) (UniProt P54756). Put plainly: Enzymatic radiometric [Km ATP] KinaseProfiler LeadHunter assay, kinase: EphA5, catalogue number: 14-639KP The assay has been performed by Eurofins Discovery. To be noted: ATP concentration 10.0 uM, Test compound concentration 10.0 uM.
In experiment [2] the target is T1, Ephrin type-B receptor 4 (Homo sapiens) (UniProt P54760).
T1 sequence (whole entry): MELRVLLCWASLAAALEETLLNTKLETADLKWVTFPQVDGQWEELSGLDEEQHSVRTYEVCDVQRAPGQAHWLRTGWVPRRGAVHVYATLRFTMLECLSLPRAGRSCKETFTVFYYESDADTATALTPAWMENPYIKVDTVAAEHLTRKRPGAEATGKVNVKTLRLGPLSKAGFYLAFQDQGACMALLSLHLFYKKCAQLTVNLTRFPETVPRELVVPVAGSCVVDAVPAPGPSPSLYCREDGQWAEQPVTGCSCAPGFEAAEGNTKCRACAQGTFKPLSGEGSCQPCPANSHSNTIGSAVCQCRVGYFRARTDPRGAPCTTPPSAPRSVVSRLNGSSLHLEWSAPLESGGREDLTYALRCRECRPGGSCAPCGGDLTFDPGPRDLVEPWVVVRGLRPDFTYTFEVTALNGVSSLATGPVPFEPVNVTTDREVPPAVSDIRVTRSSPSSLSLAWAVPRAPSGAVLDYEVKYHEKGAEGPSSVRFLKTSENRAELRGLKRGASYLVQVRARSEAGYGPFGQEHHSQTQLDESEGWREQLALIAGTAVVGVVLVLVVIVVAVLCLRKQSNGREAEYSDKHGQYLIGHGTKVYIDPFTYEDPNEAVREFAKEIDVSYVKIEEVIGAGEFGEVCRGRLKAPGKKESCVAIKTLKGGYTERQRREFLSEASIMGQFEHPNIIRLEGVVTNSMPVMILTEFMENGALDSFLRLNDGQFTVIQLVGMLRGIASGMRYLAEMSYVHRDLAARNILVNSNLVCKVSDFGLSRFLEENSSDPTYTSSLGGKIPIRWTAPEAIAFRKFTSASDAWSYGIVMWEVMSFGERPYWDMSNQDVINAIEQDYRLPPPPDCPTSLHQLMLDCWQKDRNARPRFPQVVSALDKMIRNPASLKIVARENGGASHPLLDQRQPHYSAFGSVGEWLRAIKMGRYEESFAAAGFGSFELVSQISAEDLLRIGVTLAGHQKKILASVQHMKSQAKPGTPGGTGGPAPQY
The experiment can be described thus: Enzymatic radiometric [Km ATP] KinaseProfiler LeadHunter assay, kinase: EphB4, catalogue number: 14-554KP The assay has been performed by Eurofins Discovery. Particulars: ATP concentration 10.0 uM, Test compound concentration 10.0 uM.

The target in experiment [3] is Vascular endothelial growth factor receptor 2 (Homo sapiens) (UniProt P35968). Put plainly: Enzymatic radiometric [Km ATP] KinaseProfiler LeadHunter assay, kinase: KDR, catalogue number: 14-630KP The assay has been performed by Eurofins Discovery. To be noted: ATP concentration 90.0 uM, Test compound concentration 10.0 uM.
The target of experiment [4] is Mitogen-activated protein kinase kinase kinase 9 (Homo sapiens) (UniProt P80192). Put plainly: Enzymatic radiometric [Km ATP] KinaseProfiler LeadHunter assay, kinase: MLK1, catalogue number: 14-690KP The assay has been performed by Eurofins Discovery. Particulars: ATP concentration 45.0 uM, Test compound concentration 10.0 uM.
Experiment [5] has as its target Serine/threonine-protein kinase mTOR (Homo sapiens) (UniProt P42345). Put plainly: Enzymatic radiometric [Km ATP] KinaseProfiler LeadHunter assay, kinase: mTOR, catalogue number: 14-769KP The assay has been performed by Eurofins Discovery. Particulars: ATP concentration 70.0 uM, Test compound concentration 10.0 uM.
Experiment [6] addresses T2, Serine/threonine-protein kinase Nek2 (Homo sapiens) (UniProt P51955).
T2 sequence (whole entry): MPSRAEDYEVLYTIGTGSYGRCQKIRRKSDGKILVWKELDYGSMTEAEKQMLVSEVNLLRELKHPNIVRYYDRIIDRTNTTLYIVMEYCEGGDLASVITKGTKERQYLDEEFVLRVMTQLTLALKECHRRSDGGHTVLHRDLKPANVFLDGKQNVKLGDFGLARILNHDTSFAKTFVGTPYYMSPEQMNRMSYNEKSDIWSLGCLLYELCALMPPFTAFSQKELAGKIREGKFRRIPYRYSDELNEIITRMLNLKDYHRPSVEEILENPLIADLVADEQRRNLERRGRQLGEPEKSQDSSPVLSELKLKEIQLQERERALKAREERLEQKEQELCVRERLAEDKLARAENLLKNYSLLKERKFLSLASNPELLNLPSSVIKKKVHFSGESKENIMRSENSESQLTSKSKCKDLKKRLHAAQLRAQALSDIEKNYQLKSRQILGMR
The experiment can be described thus: Enzymatic radiometric [Km ATP] KinaseProfiler LeadHunter assay, kinase: NEK2, catalogue number: 14-545KP The assay has been performed by Eurofins Discovery. To be noted: ATP concentration 120.0 uM, Test compound concentration 10.0 uM.

Experiment [7] addresses T3, cGMP-dependent protein kinase 1 (Homo sapiens) (UniProt Q13976).
T3 sequence (whole entry): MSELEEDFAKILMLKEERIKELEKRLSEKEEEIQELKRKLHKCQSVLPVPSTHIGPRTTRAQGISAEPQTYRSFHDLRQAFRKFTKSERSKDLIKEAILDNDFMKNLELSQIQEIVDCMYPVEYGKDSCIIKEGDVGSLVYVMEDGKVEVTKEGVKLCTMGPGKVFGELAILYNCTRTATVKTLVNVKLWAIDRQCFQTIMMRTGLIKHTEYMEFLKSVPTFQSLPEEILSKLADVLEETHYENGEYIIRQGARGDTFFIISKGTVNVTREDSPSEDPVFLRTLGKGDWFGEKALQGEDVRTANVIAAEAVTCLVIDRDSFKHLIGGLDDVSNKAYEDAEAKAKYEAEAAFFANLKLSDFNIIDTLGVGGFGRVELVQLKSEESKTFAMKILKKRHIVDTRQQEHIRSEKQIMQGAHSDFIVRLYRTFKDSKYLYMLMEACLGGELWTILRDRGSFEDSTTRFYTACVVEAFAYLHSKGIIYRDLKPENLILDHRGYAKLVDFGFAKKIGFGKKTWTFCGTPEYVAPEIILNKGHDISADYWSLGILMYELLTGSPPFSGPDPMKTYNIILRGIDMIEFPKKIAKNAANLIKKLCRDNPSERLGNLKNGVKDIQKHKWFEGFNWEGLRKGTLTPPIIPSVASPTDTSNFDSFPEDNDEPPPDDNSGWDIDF
Put plainly: Enzymatic radiometric [Km ATP] KinaseProfiler LeadHunter assay, kinase: PKG1-alpha, catalogue number: 14-688KP The assay has been performed by Eurofins Discovery. To be noted: ATP concentration 90.0 uM, Test compound concentration 10.0 uM.

In experiment [8] the target is Phosphatidylinositol 4,5-bisphosphate 3-kinase catalytic subunit gamma isoform (Homo sapiens) (UniProt P48736). Put plainly: Enzymatic radiometric [Km ATP] KinaseProfiler LeadHunter assay, kinase: PI3 Kinase (p120-gamma), catalogue number: 14-558KP The assay has been performed by Eurofins Discovery. To be noted: ATP concentration 100.0 uM, Test compound concentration 10.0 uM.
Phosphatidylinositol 4,5-bisphosphate 3-kinase catalytic subunit gamma isoform (Homo sapiens), sequence (P48736 whole entry, looked up, canonical isoform): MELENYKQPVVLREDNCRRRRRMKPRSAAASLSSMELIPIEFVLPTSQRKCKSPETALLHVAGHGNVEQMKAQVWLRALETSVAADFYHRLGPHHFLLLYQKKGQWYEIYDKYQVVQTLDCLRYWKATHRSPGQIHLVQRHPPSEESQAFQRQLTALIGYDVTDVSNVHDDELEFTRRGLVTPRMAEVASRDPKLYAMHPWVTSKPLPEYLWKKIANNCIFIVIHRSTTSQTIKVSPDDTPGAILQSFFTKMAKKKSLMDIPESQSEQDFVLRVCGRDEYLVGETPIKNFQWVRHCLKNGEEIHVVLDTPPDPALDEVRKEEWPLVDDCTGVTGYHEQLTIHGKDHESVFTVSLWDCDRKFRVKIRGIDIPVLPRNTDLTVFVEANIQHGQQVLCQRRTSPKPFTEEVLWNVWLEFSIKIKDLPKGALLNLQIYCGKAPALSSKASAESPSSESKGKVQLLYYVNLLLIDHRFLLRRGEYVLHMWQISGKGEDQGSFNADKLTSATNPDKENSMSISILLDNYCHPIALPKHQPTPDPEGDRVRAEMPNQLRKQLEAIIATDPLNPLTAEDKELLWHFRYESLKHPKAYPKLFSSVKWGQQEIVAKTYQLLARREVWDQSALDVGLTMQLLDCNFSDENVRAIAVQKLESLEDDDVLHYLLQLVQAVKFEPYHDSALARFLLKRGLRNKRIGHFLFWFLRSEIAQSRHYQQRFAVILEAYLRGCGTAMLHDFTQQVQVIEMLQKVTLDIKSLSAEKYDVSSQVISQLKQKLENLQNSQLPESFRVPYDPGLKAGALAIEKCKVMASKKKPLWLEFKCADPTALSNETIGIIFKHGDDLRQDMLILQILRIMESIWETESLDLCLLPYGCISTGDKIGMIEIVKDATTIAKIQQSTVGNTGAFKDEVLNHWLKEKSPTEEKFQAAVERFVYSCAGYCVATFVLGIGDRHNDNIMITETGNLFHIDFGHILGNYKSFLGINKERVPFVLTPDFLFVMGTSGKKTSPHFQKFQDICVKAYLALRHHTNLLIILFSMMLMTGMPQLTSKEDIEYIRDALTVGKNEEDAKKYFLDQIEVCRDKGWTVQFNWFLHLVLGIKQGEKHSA

Ephrin type-A receptor 5 (Homo sapiens), sequence (P54756 whole entry): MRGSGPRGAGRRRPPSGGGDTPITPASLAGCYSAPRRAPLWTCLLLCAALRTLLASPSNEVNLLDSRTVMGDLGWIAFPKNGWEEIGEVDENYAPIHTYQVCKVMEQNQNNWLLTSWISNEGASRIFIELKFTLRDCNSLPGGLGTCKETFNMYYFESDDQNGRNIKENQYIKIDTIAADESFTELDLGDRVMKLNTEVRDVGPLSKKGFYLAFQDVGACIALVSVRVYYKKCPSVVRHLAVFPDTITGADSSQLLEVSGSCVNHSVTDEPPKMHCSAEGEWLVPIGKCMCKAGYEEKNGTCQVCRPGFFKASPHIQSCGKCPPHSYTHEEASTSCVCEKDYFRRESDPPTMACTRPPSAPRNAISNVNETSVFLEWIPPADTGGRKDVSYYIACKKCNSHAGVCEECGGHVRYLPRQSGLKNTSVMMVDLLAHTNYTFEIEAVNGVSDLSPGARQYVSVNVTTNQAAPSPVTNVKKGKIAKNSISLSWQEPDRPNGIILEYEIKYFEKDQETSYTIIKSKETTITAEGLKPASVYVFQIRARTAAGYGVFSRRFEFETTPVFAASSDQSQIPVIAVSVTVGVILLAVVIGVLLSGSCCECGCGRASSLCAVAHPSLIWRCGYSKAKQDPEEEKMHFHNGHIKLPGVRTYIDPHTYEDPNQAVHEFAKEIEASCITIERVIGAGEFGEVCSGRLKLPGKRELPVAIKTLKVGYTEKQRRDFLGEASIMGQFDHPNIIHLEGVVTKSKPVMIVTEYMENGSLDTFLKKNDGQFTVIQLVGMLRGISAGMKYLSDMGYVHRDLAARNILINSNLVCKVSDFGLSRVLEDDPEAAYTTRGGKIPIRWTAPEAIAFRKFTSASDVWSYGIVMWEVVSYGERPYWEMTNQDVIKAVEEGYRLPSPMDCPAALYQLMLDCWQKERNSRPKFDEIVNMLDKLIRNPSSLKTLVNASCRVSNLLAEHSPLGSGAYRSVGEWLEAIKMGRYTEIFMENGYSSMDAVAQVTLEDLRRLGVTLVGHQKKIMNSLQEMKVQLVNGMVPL
Mitogen-activated protein kinase kinase kinase 9 (Homo sapiens), sequence (P80192 whole entry, looked up): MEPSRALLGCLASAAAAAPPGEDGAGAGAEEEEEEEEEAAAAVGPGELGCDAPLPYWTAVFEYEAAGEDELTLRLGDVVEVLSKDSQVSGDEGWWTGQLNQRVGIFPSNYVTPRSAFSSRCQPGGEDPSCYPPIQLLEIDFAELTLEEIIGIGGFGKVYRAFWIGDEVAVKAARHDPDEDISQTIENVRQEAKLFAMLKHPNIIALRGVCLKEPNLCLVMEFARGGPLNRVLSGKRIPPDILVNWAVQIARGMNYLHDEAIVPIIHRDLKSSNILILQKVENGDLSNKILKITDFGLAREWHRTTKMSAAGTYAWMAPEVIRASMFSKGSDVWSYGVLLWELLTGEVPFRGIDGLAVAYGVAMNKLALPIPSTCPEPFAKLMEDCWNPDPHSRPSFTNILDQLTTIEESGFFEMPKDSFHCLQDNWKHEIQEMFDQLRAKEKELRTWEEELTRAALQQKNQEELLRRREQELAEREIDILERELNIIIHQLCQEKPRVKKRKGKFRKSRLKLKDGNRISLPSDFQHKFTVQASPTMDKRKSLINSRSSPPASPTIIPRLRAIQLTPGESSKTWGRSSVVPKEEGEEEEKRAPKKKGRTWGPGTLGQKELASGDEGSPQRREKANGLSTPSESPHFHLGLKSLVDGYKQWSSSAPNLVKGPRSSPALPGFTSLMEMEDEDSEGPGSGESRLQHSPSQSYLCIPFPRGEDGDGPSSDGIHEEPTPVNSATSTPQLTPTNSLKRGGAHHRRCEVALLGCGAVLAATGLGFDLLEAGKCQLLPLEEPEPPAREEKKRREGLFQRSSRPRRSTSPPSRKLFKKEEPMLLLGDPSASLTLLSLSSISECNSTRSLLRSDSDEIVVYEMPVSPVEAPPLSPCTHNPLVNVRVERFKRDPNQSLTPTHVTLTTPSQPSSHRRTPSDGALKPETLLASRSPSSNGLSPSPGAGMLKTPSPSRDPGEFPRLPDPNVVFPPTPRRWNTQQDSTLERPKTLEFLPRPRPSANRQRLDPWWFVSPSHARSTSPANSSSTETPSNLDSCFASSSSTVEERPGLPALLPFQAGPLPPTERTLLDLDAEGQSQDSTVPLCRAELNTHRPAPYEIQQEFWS
Vascular endothelial growth factor receptor 2 (Homo sapiens), sequence (P35968 whole entry): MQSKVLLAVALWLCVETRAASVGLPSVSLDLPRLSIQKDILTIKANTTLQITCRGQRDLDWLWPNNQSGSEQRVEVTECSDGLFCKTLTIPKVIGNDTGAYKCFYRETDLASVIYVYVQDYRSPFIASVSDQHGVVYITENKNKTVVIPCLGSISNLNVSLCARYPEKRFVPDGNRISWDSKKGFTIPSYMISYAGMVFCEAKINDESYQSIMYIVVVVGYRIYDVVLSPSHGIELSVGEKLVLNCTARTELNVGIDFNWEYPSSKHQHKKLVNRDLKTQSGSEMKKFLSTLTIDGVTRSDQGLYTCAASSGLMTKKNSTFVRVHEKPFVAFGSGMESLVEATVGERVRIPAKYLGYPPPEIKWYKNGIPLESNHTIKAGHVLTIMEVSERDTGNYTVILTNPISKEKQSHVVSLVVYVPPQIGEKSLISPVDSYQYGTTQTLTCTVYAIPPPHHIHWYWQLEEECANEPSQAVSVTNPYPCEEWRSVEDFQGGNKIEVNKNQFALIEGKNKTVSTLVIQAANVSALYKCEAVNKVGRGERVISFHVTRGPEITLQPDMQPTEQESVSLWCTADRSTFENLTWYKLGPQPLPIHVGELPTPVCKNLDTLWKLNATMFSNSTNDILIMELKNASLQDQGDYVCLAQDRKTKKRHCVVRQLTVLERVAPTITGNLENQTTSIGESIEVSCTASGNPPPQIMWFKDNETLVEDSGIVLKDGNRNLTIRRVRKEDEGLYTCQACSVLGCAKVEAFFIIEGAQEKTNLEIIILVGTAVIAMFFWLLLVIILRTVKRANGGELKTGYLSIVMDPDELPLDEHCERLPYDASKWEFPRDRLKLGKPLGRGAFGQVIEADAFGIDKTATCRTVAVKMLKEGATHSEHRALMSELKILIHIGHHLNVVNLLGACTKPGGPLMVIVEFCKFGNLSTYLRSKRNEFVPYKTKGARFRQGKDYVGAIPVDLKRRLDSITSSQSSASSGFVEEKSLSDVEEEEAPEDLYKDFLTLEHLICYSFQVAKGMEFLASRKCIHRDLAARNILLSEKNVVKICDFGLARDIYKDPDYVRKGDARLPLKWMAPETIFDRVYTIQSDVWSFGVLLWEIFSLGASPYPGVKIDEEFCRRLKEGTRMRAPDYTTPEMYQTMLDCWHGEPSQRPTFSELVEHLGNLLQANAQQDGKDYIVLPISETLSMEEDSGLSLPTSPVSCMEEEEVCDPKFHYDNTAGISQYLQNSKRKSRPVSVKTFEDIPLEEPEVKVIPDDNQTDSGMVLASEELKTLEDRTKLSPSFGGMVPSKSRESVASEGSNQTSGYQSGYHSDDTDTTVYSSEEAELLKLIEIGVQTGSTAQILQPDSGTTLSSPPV

Regarding `CC(C)[C@H](Nc1ncnc2[nH]c(-c3cnn(C)c3C#N)cc12)c1ccc2c(n1)OCCO2`, the Activity in experiment [1] worked out at 102%; in experiment [2], 89%; in experiment [3] it was 76%; in experiment [4], 73%; in experiment [5], 104%; in experiment [6], 105%. Further, the Activity was determined as 130% in experiment [7] and 80% in experiment [8].

On to `CC(C)[C@H](Nc1ncnc2[nH]ccc12)c1ccc2c(c1)S(=O)(=O)CCC2`, for which the Activity in experiment [1] is 102%; in experiment [2] it was 86%; in experiment [3], 86%; in experiment [4] it was 84%; in experiment [5] it was 99%; in experiment [6], 109%. The figures for the Activity in experiment [7] and in experiment [8] were 123% and 98%, respectively.

With `COc1ccc([C@H](Cc2nnn[nH]2)NC(=O)c2ncnc3[nH]ccc23)cc1`, the Activity worked out at 102% in experiment [1]; 106% in experiment [2]; 97% in experiment [3]; 87% in experiment [4]; 97% in experiment [5]; 106% in experiment [6]. The results for the Activity in experiment [7] and in experiment [8] were 121% and 88%, respectively.

For the compound `Cn1ncc(-c2cc3c(N[C@@H](c4ccc5c(n4)OCCO5)C(C)(C)C)ncnc3[nH]2)c1C#N`, the Activity stood at 102% in experiment [1]; 115% in experiment [2]; 83% in experiment [3]; 94% in experiment [4]; 105% in experiment [5]; 104% in experiment [6]. The figures for the Activity in experiment [7] and in experiment [8] were 127% and 88%, respectively.

In the case of `CC(C)[C@@H](Nc1ncnc2[nH]c(C(=O)N[C@@H]3CCN(C)C3)cc12)c1ccc2c(c1)S(=O)(=O)CCC2`, the Activity in experiment [1] was found to be 100%; in experiment [2], 86%; in experiment [3], 96%; in experiment [4] it was 96%; in experiment [5], 103%; in experiment [6], 118%. For the same compound, the results for the Activity in experiment [7] and in experiment [8] were 116% and 97%, respectively.

In the case of `CNC(=O)Cn1cc(-c2cc3c(N[C@@H](c4ccc5c(c4)S(=O)(=O)CCC5)C(C)C)ncnc3[nH]2)cn1`, the Activity in experiment [1] stood at 80%; in experiment [2], 97%; in experiment [3], 91%; in experiment [4], 89%; in experiment [5] it was 104%; in experiment [6], 114%. Moreover, the Activity in experiment [7] turned out to be 120%; in experiment [8], 93%.

Consider `Cc1nn(C)cc1-c1cc2c(N[C@H](c3ccc4c(c3)S(=O)(=O)CCC4)C(C)C)ncnc2[nH]1`, for which the Activity was 74% in experiment [1]; 98% in experiment [2]; 88% in experiment [3]; 79% in experiment [4]; 96% in experiment [5]; 98% in experiment [6]. Further, the Activity in experiment [7] was 128%; in experiment [8], 96%.

In the case of `COc1ccc([C@@H](Cc2nnn[nH]2)NC(=O)c2ncnc3[nH]ccc23)cc1`, the Activity in experiment [1] stood at 106%; in experiment [2], 88%; in experiment [3] it was 79%; in experiment [4], 85%; in experiment [5], 95%; in experiment [6], 100%. The Activity was 95% in experiment [7] and 89% in experiment [8].

For the compound `CNCc1cc(-c2cc3c(N[C@@H](c4ccc5c(c4)S(=O)(=O)CCC5)C(C)C)ncnc3[nH]2)co1`, the Activity worked out at 78% in experiment [1]; 92% in experiment [2]; 88% in experiment [3]; 86% in experiment [4]; 105% in experiment [5]; 105% in experiment [6]. In addition, the Activity in experiment [7] came to 115%; in experiment [8], 96%.

On to `CC(C)[C@@H](Nc1ncnc2[nH]ccc12)c1ccc2c(c1)S(=O)(=O)CCC2`, for which the Activity stood at 110% in experiment [1]; 91% in experiment [2]; 82% in experiment [3]; 81% in experiment [4]; 102% in experiment [5]; 118% in experiment [6]. Moreover, the figures for the Activity in experiment [7] and in experiment [8] were 88% and 103%, respectively.

For `C[C@H](C(=O)O)[C@@H](NC(=O)c1ncnc2[nH]ccc12)c1ccc(Br)cc1`, the Activity in experiment [1] was 99%; in experiment [2], 105%; in experiment [3], 77%; in experiment [4], 86%; in experiment [5], 100%; in experiment [6] it was 101%. The Activity turned out to be 118% in experiment [7] and 97% in experiment [8].

Take `CC(C)[C@@H](Nc1ncnc2[nH]c(-c3cnn(C)c3C#N)cc12)c1ccc2c(n1)OCCO2`: the Activity was 91% and 90% in experiment [1]; 75% and 91% in experiment [2]; 80% and 86% in experiment [3]; 81% and 82% in experiment [4]; 83% and 102% in experiment [5]; 94% and 76% in experiment [6]. Moreover, the Activity in experiment [7] was 100% and 123%; in experiment [8], 63% and 78%.
